The series can be described thus: physchem. Particulars: aqueous with cosolvent or surfactant or cyclodextrin.

Data on one molecule can be found in patent US9943490B2, “Composite flash-precipitated nanoparticles” (The Trustees of Princeton University, priority 2008, dated 2018).

What is called solubility is how much of the substance goes into solution per volume. Higher therefore signals a readily soluble substance.

Values after ≈ are worked out from the molar mass of the structure shown.

In the case of `CC1=C(/C=C/C(C)=C/C=C/C(C)=C/C=C/C=C(C)/C=C/C=C(C)/C=C/C2=C(C)CCCC2(C)C)C(C)(C)CCC1` [β-carotene], the solubility is ~50 µg/mL (≈ 93.1 µM).
